Results taken from US20260217651A1 (priority 2022, published 2026).

Test system: SD rats
Test: animal or person
Assay type: in vivo, rat
Conditions: iv; for minimal effective dose: Rattus norvegicus, read-out: Minimal effective anesthetic dose(mg/kg)

| Structure (SMILES) | minimal effective dose | Onset time (rat, in vivo) | Righting Reflex Duration (rat, in vivo) | Sedation Duration (rat, in vivo) | Minimal effective anesthetic dose(mg/kg) (rat, in vivo) |
| --- | --- | --- | --- | --- | --- |
| COC(=O)C1CCN(c2cc(C(C)C)c(O)c([C@H](C)C3CC3)c2)CC1 [Cpd-84-1] | < 5 mg/kg | 0.43 to 0.77 min | 0.77 to 4.62 min | 5.72 to 10.28 min | – |
| CCC(=O)N(c1cc(C(C)C)c(O)c([C@H](C)C2CC2)c1)N1CCN(CCC(=O)OC)CC1 [Cpd-50] | 20 to 40 mg/kg | 1.03 min | 1.47 min | 66.48 min | – |
| CCOC(=O)N(c1cccc(C)c1)N1CCN(c2cc(C(C)C)c(O)c(C(C)C)c2)CC1 [Cpd-62] | 10 to 20 mg/kg | 1.15 to 2.15 min | 1.22 to 17.28 min | 55.48 to 85.02 min | – |
| COC(=O)CN1CC=C(c2cc(C(C)C)c(O)c([C@H](C)C3CC3)c2)CC1 [Cpd-86] | < 5 mg/kg | 0.17 to 0.20 min | 1.15 to 10.33 min | 16.40 to 19.62 min | – |
| CC(=O)N(c1ccccc1)C1CCN(c2cc(C(C)C)c(O)c(C(C)C)c2)CC1 [Cpd-12] | 10 to 20 mg/kg | 0.45 min | 6.85 min | 55.12 min | – |
| CC(C)c1cc(N2CCC(C(=O)OC(C)(C)C)CC2)cc([C@H](C)C2CC2)c1O [Cpd-85-1] | < 5 mg/kg | 0.40 to 1.33 min | 1.38 to 29.00 min | 20.97 to 44.48 min | – |
| COC(=O)CN1CCC(N(CC(=O)OC)c2cc(C(C)C)c(O)c([C@H](C)C3CC3)c2)CC1 [Cpd-87] | 10 to 20 mg/kg | 0.42 min | 1.85 min | 19.32 min | – |
| CC(C)c1cc(N2CCC(CC(=O)OC(C)(C)C)CC2)cc([C@H](C)C2CC2)c1O [Cpd-81] | < 5 mg/kg | 0.18 to 0.75 min | 9.28 to 40.37 min | 27.22 to 57.86 min | – |
| COC(=O)CC1CCN(Cc2cc(C(C)C)c(O)c([C@H](C)C3CC3)c2)CC1 [Cpd-77] | < 5 mg/kg | 1.00 to 1.80 min | 0.67 to 1.95 min | 5.00 to 22.33 min | – |
| CC(C)OC(=O)N(c1ccccc1)N1CCN(c2cc(C(C)C)c(O)c(C(C)C)c2)CC1 [Cpd-52] | 5 to 10 mg/kg | 0.52 to 0.98 min | 13.92 to 16.42 min | 28.53 to 94.30 min | – |
| COC(=O)CN(C1CC1)C1CCN(c2cc(C(C)C)c(O)c(C(C)C)c2)CC1 [Cpd-8] | 5 to 10 mg/kg | 0.40 min | 7.73 min | 17.93 min | – |
| CCOC(=O)C1(c2cccc(Cl)c2)CCN(c2cc(C(C)C)c(O)c(C(C)C)c2)CC1 [Cpd-37] | 5 to 10 mg/kg | 2.63 min | 0.65 min | 21.73 min | – |
| CCOC(=O)N(c1ccc(OC)c(F)c1)N1CCN(c2cc(C(C)C)c(O)c(C(C)C)c2)CC1 [Cpd-101] | 10 to 20 mg/kg | 0.70 to 0.73 min | 2.05 to 2.58 min | 38.73 to 57.17 min | – |
| CCOC(=O)N(c1ccc(OC)c(Br)c1)N1CCN(c2cc(C(C)C)c(O)c(C(C)C)c2)CC1 [Cpd-103] | 20 to 40 mg/kg | 0.15 min | 14.85 min | 107.67 min | – |
| COC(=O)CCC1CCN(c2cc(C(C)C)c(O)c([C@H](C)C3CC3)c2)CC1 [Cpd-82] | < 5 mg/kg | 0.17 to 0.52 min | 0.87 to 3.42 min | 3.67 to 13.02 min | – |
| CCOC(=O)N(c1ccc(F)cc1)N1CCN(c2cc(C(C)C)c(O)c(C(C)C)c2)CC1 [Cpd-64] | 10 to 20 mg/kg | 0.43 to 0.47 min | 3.70 to 7.22 min | 26.92 to 42.58 min | – |
| CCOC(=O)C1(c2ccccc2F)CCN(c2cc(C(C)C)c(O)c(C(C)C)c2)CC1 [Cpd-34] | 10 to 20 mg/kg | 0.88 min | 10.28 min | 29.75 min | – |

| Structure (SMILES) | minimal effective dose | Onset time (rat, in vivo) | Righting Reflex Duration (rat, in vivo) | Sedation Duration (rat, in vivo) | Minimal effective anesthetic dose(mg/kg) (rat, in vivo) |
| --- | --- | --- | --- | --- | --- |
| CCC(=O)N(c1ccccc1)C1CCN(c2cc(C(C)C)c(O)c([C@H](C)C3CC3)c2)CC1 [Cpd-18] | 5 to 10 mg/kg | 0.20 to 0.57 min | 5.55 to 20.30 min | 26.77 to 47.53 min | – |
| CCOC(=O)C1(c2ccccn2)CCN(c2cc(C(C)C)c(O)c(C(C)C)c2)CC1.Cl [Cpd-23] | 10 to 20 mg/kg | 0.53 min | 13.95 min | 41.02 min | – |
| C=C[C@@H](C)c1cc(N2CCN(CC(=O)OC)CC2)cc(C(C)C)c1O [Cpd-89] | 10 to 20 mg/kg | 0.18 min | 0.88 min | 22.78 min | – |
| CCOC(=O)N(Cc1ccoc1)N1CCN(c2cc(C(C)C)c(O)c(C(C)C)c2)CC1 [Cpd-126] | 10 to 20 mg/kg | 0.42 min | 14.90 min | 21.85 min | – |
| CCOC(=O)N(c1cccc(Cl)c1)N1CCN(c2cc(C(C)C)c(O)c([C@@H](C)C3CC3)c2)CC1 [Cpd-106] | 10 to 20 mg/kg | 1.55 to 1.60 min | 3.35 to 24.10 min | 98.82 to 103.67 min | – |
| CCOC(=O)N(c1ccccc1)N1CCN(c2cc(C(C)C)c(O)c(C(C)C)c2)CC1 [Cpd-51] | 5 to 10 mg/kg | 0.65 to 0.97 min | 2.52 to 14.47 min | 22.27 to 35.75 min | – |
| CCOC(=O)N(c1ccc(C)cc1)N1CCN(c2cc(C(C)C)c(O)c([C@H](C)C3CC3)c2)CC1 [Cpd-74] | 20 to 40 mg/kg | 0.50 min | 26.28 min | 69.23 min | – |
| CCOC(=O)N(Cc1cccc(Cl)c1)N1CCN(c2cc(C(C)C)c(O)c(C(C)C)c2)CC1 [Cpd-127] | 5 to 10 mg/kg | 0.55 min | 21.20 min | 71.18 min | – |
| CCOC(=O)N(c1cccc(OC)c1)N1CCN(c2cc(C(C)C)c(O)c([C@H](C)C3CC3)c2)CC1 [Cpd-71] | 10 to 20 mg/kg | 0.55 min | 17.52 min | 37.65 min | – |
| CCOC(=O)N(c1cccc(C#N)c1)N1CCN(c2cc(C(C)C)c(O)c(C(C)C)c2)CC1 [Cpd-95] | 20 to 40 mg/kg | 0.72 min | 13.75 min | 54.33 min | – |
| CCOC(=O)N(c1ccccc1)N1CCN(c2cc(C(C)C)c(O)c([C@H](C)C3CC3)c2)CC1 [Cpd-59] | 10 to 20 mg/kg | 0.37 to 0.85 min | 21.18 to 24.15 min | 37.27 to 47.68 min | – |
| COC(=O)CN1CCN(Cc2cc(C(C)C)c(O)c([C@H](C)C3CC3)c2)CC1 [Cpd-78-1] | 5 to 10 mg/kg | 0.62 min | 2.73 min | 22.58 min | – |
| COC(=O)CN(c1ccccc1)C1CCN(c2cc(C(C)C)c(O)c(C(C)C)c2)CC1 [Cpd-10] | 5 to 10 mg/kg | 0.42 to 0.45 min | 6.47 to 27.50 min | 47.22 to 66.70 min | – |
| COC(=O)N(c1ccccc1)C1CCN(c2cc(C(C)C)c(O)c(C(C)C)c2)CC1 [Cpd-3] | < 5 mg/kg | 0.20 to 0.67 min | 5.83 to 22.20 min | 24.65 to 38.02 min | – |
| COC(=O)CC1CCN(c2cc(C(C)C)c(O)c([C@H](C)C3CC3)c2)CC1 [Cpd-80] | < 5 mg/kg | 0.17 to 0.97 min | 1.50 to 12.97 min | 10.17 to 28.53 min | – |
| COC(=O)C1CCN(c2cc(C(C)C)c(O)c([C@H](C)C3CC3)c2)CC1 [Cpd-84] | – | 0.30 to 0.75 min | 1.10 to 17.23 min | 18.08 to 35.02 min | A (key: A≤5 mg/kg; 5 mg/kg<B≤10 mg/kg; 10 mg/kg<C≤20 mg/kg; 20 mg/kg<D≤40 mg/k; E>40 mg/kg) |
